Test results as given in patent publication US20240228536A1, “PEPTIDES FOR USE IN SKIN AND HAIR PIGMENTATION” (Follicum AB, priority 2020, published 2024).

Assays:
Format in all cases: cell-based, human
[1] = system: Pigmented skin equivalents (SEs), Melanoderms Mel-300-A (donor) and Mel-300-C-2 (donor); test: Skin equivalent culture, photographic assessment of pigmentation
Method: The skin equivalent surface area was 63.6 mm^2. Other equipment used included SMZ1000 Stereo Microscope (Nikon); UC30 Microscope Camera (Olympus); Phosphate-Buffered Saline (PBS); 6-well Tissue Culture Plates (Sarstedt); Image J software (https://imagej.nih.gov); Paintshop Photo Pro Software (Corel). The Melanoderms were prepared by carefully removing the agarose with sterile forceps and placing them in pre-warmed culture medium (37° C.) for an hour prior to treatment. The Melanoderms were then topically treated (without rubbing) with 25 μl of the various peptides, dissolved in dH2O at 10 mg/ml. […] The SEs were examined and removed from culture when skin darkening became visible. The pigmentation of the Melanoderms was macroscopically assessed by capturing high-resolution images using the Olympus microscope camera. […] They were then placed into a 6-well plate containing 1 ml PBS/well and images captured at ×8 magnification. The images were then processed using Image J & Paintshop Photo Pro software, to determine a quantifiable pixel area, which equated to the level of pigmentation present in the skin equivalent. The image brightness was normalised and the image gray-scaled using Paintshop Photo Pro, then Image J was used to threshold the image. The pigmentation was quantified by assessing total pixel area of pigmentation coverage in a fixed sample area. An ANOVA test (Dunnett's post-test) was used for the statistical analysis. Three different experiments were conducted. In the first, skin equivalents from both donors were included, and in experiment 2 and 3, only the […] donor was included. The SE of the […] donor from the first experiment received 5 treatments of 25 μl of peptide solution at 10 mg/ml; starting on the first day following receipt then on days 3, 5, 9 and 12. Peptides 1 (SEQ ID NO: 2), 3 (SEQ ID NO: 3) and 4 (SEQ ID NO: 4) were tested. The images were taken on Day 14. In experiment 2, peptide 3 and 4 were selected for testing to see if it had any efficacy in reducing melanin content or the distribution of melanin throughout the SE. This time, 5 SEs were used per treatment to improve statistical robustness. The experiment was continued for 20 days with treatments on days 0, 3, 7 and 12 and medium changes every other day. In experiment 3 a more highly pigmented SE ([…] donor melanocytes) was used and with an increased sample size with n=7 per treatment. […] Treatment was repeated on days 5, 9, 12 and 15 with medium changed every other day.

skin equivalents = test: Total melanin assay
Method: The skin equivalents used in this study was from the same donors as in Example 2. The determination of the total melanin content of the skin equivalent was determined using a total melanin assay.
The total melanin content of the SE was calculated by dissolving the SE in Soluene and reading the absorbance against a standard curve. The SEs were removed from culture on day 20 and washed with PBS. They were then transferred to a glass centrifuge tube and 500 μl Soluene added. The tubes were then covered with […]®, gently vortexed and placed on the Thermomixer at 50° C. for 1 hour. The tubes were then gently vortexed and 150 μl of the sample and synthetic melanin standards pipetted in triplicate into a glass 96 well plate. The absorbance was then measured at 490 nm on a Spectrophotometer. Results are presented in μg/ml against a standard curve. The change of melanin content is expressed as a percentage change versus vehicle control samples. An ANOVA (with Dunnett's post-test) was used for the statistical analysis.
Three experiments were conducted, and the same donors were used as in Example 2. The sample sizes were as follows: experiment 1 n=2, experiment 2 n=4 and experiment 3 n=7. Peptides 1 (SEQ ID NO: 2), 3 (SEQ ID NO: 3) and 4 (SEQ ID NO: 4) were tested.

[2] = system: Melanoderms Mel-300-A (donor); test: Skin equivalent culture, peptides in formulation, photographic assessment of pigmentation; settings: 7 days; for pigmentation of SEs (visual assessment), response by concentration: 0.4%, 1% and 2% in formulation B, relative to vehicle controls; for pigmentation of SEs (visual assessment): in formulation B, 25 μl topical, vs formulation B only and peptide dissolved in water (10 mg/ml)
Method: Pigmented skin equivalents (SEs), Melanoderms Mel-300-A (donor) were obtained from Mattek Ltd together with the associated media […]-113 and hanging well plates. The skin equivalent surface area was 63.6 mm^2. Other equipment used included SMZ1000 Stereo 10 Microscope (Nikon); UC30 Microscope Camera (Olympus); Sterile Phosphate-Buffered Saline (PBS, Thermofisher, UK); 12-well Tissue Culture Plates (Sarstedt). All incubations were carried out in a humidified incubator maintained at 37° C. with 5% CO2. Pure peptide (>99%) was obtained from Biomatik, USA as acetate salt. The Melanoderms were prepared by carefully removing the agarose with sterile forceps and placing in 5 ml pre-warmed culture medium in hanging plates and incubated overnight. […] The tissue surface was photographed using an Olympus camera system attached to an inverted microscope to record initial pigmentation levels. SEs were transferred back to hanging well plates containing 5 ml fresh media. Three SEs were removed to provide baseline day 0 controls for analysis using WS staining and qPCR analysis. SEs (n=3 per treatment) were topically treated for 7 days with 25 μl of the various peptide concentrations in formulations as prepared in Example 12 in parallel with relevant controls. […] Each formulation was applied to the surface of SEs using a positive displacement pipette and spread evenly using a sterile microbiological loop. SEs were maintained at 37° C., 5% CO2 in a humidified incubator with media refreshed every other day until the end of treatment. On day 7 SEs were removed from culture and formulation carefully removed using a sterile microbiological loop and the surface rinsed in PBS then blotted dry with a sterile cotton bud. […] The pigmentation of the Melanoderms was macroscopically assessed by capturing high-resolution images using the Olympus microscope camera.

[3] = experiment 1, donor, 10 mg/ml, 20 days in culture
[4] = experiment 1, donor, 5 topical treatments of 25 μl at 10 mg/ml in dH2O, images Day 14
[5] = experiment 3, more highly pigmented SE (donor), 10 mg/ml, n=7
[6] = experiments 1 and 3, 10 mg/ml topical, day 20

Row | Substance | pigmentation of skin equivalents (photographic assessment) compared to vehicle control [1, 3] | pigmentation of skin equivalents (photographic assessment) compared to vehicle control [1, 4] | pigmentation of skin equivalents (photographic assessment) compared to vehicle control ([1]; experiment 2, donor, 10 mg/ml, 20 days, n=5) | pigmentation of skin equivalents (photographic assessment) compared to vehicle control [1, 5] | total melanin content of skin equivalents vs vehicle control (skin equivalents; experiment 2, 10 mg/ml topical, day 20, n=4) | total melanin content of skin equivalents vs vehicle control (skin equivalents; [6]) | pigmentation of SEs (visual assessment), response by concentration [2] | pigmentation of SEs (visual assessment) [2]
1 | Asn-Ala-Ala-Met (NAAM; (1)..(4) Peptide 4) | somewhat darker and mottled appearance | more pigmented compared to the vehicle | increase in pigmentation compared to the vehicle control samples | increase in pigmentation | significant increase in melanin content | increase in melanin content | approximately equal increase in pigmentation relative to vehicle controls | more pigmented than the vehicle control
2 | Asn-Ala-His-Met (NAHM; (1)..(4) Peptide 1) | somewhat darker and mottled appearance | more pigmented compared to the vehicle | – | increase in pigmentation | – | increase in melanin content | highest response at the higher 1% and 2% concentrations | more pigmented than the vehicle control
